Structures are written as SMILES. A value given as a limit tells only on which side of the number the result lay.

The subject of the experiment is MV-4-11. The experiment in a line: Proliferation assay (spheroid assay) MV-4-11. The class given is cell-based, human. Conditions: Homo sapiens, MV4-11, MV-4-11; averaged values; read-out: Spheroid assay MV-4-11 (IC50 (μM)). The procedure: The anti-proliferative effect of menin/MLL protein/protein interaction inhibitor test compounds was assessed in human leukemia cell lines. The cell lines MV-4-11 and MOLM14 harbor MLL translocations and express the MLL fusion proteins MLL-AF4 and MLL-AF9, respectively, as well as the wildtype protein from the second allele. […] K562 and KG1 were used as a control cell lines containing two MLL wildtype alleles in order to exclude compounds that display general cytotoxic effects.
MV-4-11 and MOLM14 were cultured in RPMI-1640 (Sigma Aldrich) supplemented with 10% fetal bovine serum (HyClone), 2 mM L-glutamine (Sigma Aldrich) and 50 μg/ml gentamycin (Gibco). K562 were propagated in RPMI-1640 (Sigma Aldrich) supplemented with 20% fetal bovine serum (HyClone), 2 mM L-glutamine (Sigma Aldrich) and 50 μg/ml gentamycin (Gibco). KG1 were cultured in Iscove's MDM (Gibco) supplemented with 20% fetal bovine serum (HyClone), 2 mM L-glutamine (Sigma Aldrich) and 50 μg/ml gentamycin (Gibco).
In order to assess the anti-proliferative effects, 1,500 MV-4-11, 300 MOLM14, 750 K562 or 1,300 KG1 cells were seeded in 200 μl media per well in 96-well round bottom, ultra-low attachment plates (Costar, catalogue number 7007). Cell seeding numbers were chosen based on growth curves to ensure linear growth throughout the experiment. Test compounds were added at different concentrations and the DMSO content was normalized to 0.3%. Cells were incubated for 8 d at 37° C. and 5% CO2. Spheroid like growth was monitored in real-time by live-cell imaging (IncuCyteZOOM, Essenbio, 4× objective) acquiring one image every four hours for 8 d. Confluence (%) as a measure of spheroid size was determined using an integrated analysis tool.
In order to determine the cumulative effect of the test compounds over time, the area under the curve (AUC) in a plot of confluence against time was calculated. Confluence at the beginning of the experiment (t=0) was used as baseline for the AUC calculation.
Absolute IC50 values were calculated according to the following procedure: % Control=(AUC sample/AUC control)*100 AUC control=mean AUC of control values (cells without compound/DMSO as vehicle control)
A non-linear curve fit was applied using the least squares (ordinary) fit method to the plot of % control versus compound concentration. Based on this, the absolute IC50 value (half maximal inhibitory concentration of the test compound causing an anti-proliferative effect of 50% relative to the vehicle control) was calculated.
The IC50 is the concentration at which inhibition is half-maximal. Turning to `Cc1ccc(CN2CC3(CCN(c4ncnc5sc(CC(F)(F)F)cc45)C3)C2)cc1` [Compound 49], the half-maximal inhibitory concentration (IC50) came to 2.1 µM.
Then `CC(C)C[C@H](C1CCOCC1)N1CC2(CCN(c3ncnc4sc(CC(F)(F)F)cc34)C2)C1` [Compound 179], with 1.3 µM; and `FC(F)(F)Cc1cc2c(N3CC[C@@]4(CCN(CC5CCOCC5)C4)C3)ncnc2s1` [Compound 185], with 1.3 µM.
Next, `O=C([C@H]1CC2(CC2)CN1)N1CC2(C1)CN(c1ncnc3sc(CC(F)(F)F)cc13)C2` [Compound 109]: 8.1 µM; `CC(C)CCN1CC[C@@]2(CCN(c3ncnc4sc(CC(F)(F)F)cc34)C2)C1` (single isomer, unassigned) [Compound 293]: 1.67 µM.
Then `C[C@H](C1CCNCC1)N1CC2(CCN(c3ncnc4sc(CC(F)(F)F)cc34)C2)C1` [Compound 147], with 8.2 µM; and `CC(C)C(C1CCOCC1)N1CC2(CCN(c3ncnc4sc(CC(F)(F)F)cc34)C2)C1` (centres unmarked) [Compound 156], with 0.79 µM; and `NCCn1cc(CN2CC3(CCN(c4ncnc5sc(CC(F)(F)F)cc45)C3)C2)cn1` [Compound 77], with 12.1 µM.
`Fc1cccc(CN2CC3(CCN(c4ncnc5sc(CC(F)(F)F)cc45)C3)C2)c1` [Compound 56]: the half-inhibitory concentration (IC50) came out at 4.9 µM.
Next, `CC(Cc1ccccc1F)N1CC2(CCN(c3ncnc4sc(CC(F)(F)F)cc34)C2)C1` (centres unmarked) [Compound 322]: 1.7 µM; `CCC(C1CNC1)N1CC2(CCN(c3ncnc4sc(CC(F)(F)F)cc34)C2)C1` (centres unmarked) [Compound 259]: 1.3 µM.
Then `CC(C)C[C@@H](C1CCOCC1)N1CC2(CCN(c3ncnc4sc(CC(F)(F)F)cc34)C2)C1` [Compound 180], with 1.9 µM; and `Cc1nn(C)cc1C(C(C)C)N1CC2(CCN(c3ncnc4sc(CC(F)(F)F)cc34)C2)C1` (centres unmarked) [Compound 161], with 4.2 µM; and `FC(F)(F)Cc1cc2c(N3CCC4(CN(CCc5ccccc5)C4)C3)ncnc2s1` [Compound 69], with 1.2 µM.
Then `Fc1ccccc1CN1CC2(CCN(c3ncnc4sc(CC(F)(F)F)cc34)C2)C1` [Compound 54], with 3.7 µM; and `CC(C)C(C1CCNCC1)N1CC2(CCN(c3ncnc4sc(CC(F)(F)F)cc34)C2)C1` (centres unmarked) [Compound 148], with 0.33 µM.
Regarding `Cn1cc([C@H](C2CCNCC2)N2CC3(CCN(c4ncnc5sc(CC(F)(F)F)cc45)C3)C2)cn1` [Compound 202], the IC50 was greater than 15 µM.
Next, `CC(C)CCN1CC[C@]2(CCN(c3ncnc4sc(CC(F)(F)F)cc34)C2)C1` (single isomer, unassigned) [Compound 294]: 1.83 µM; `COc1ccc(CC(C)N2CC3(CCN(c4ncnc5sc(CC(F)(F)F)cc45)C3)C2)cc1` (centres unmarked) [Compound 321]: 1.1 µM.
As for `FC(F)(F)Cc1cc2c(N3CC[C@]4(CCN(CC5CCOCC5)C4)C3)ncnc2s1` [Compound 187], the IC50 worked out at 1.4 µM.
Turning to `CC(C)C[C@@H](C1CNC1)N1CC2(CCN(c3ncnc4sc(CC(F)(F)F)cc34)C2)C1` [Compound 213], the IC50 is 1.9 µM.
As for `CC(C)C(C1CNC1)N1CC2(CCN(c3ncnc4sc(CC(F)(F)F)cc34)C2)C1` (centres unmarked) [Compound 222], the IC50 was 0.2 µM.
Then `CC(c1cn[nH]c1)N1CC2(CCN(c3ncnc4sc(CC(F)(F)F)cc34)C2)C1` (centres unmarked) [Compound 223], with 6.1 µM; and `FC(F)(F)Cc1cc2c(N3CC[C@@]4(CCN(CCc5ccccc5)C4)C3)ncnc2s1` (single isomer, unassigned) [Compound 296], with 4.89 µM.
Next, `CN1CC2(CC2)C[C@H]1C(=O)N1CC2(C1)CN(c1ncnc3sc(CC(F)(F)F)cc13)C2` [Compound 108]: greater than 15 µM.
With `C[C@@H](C1CCNCC1)N1CC2(CCN(c3ncnc4sc(CC(F)(F)F)cc34)C2)C1` [Compound 146], the 50% inhibitory concentration (IC50) came out at 2.4 µM.
As to `CC(C)C(c1cnn(C)c1)N1CC[C@]2(CCN(c3ncnc4sc(CC(F)(F)F)cc34)C2)C1` (some centres unmarked) [Compound 186], the 50% inhibitory concentration (IC50) is 1.3 µM.
Next, `CC(Cc1ccc(O)cc1)N1CC2(CCN(c3ncnc4sc(CC(F)(F)F)cc34)C2)C1` (centres unmarked) [Compound 323]: 0.75 µM.
For the molecule `CC[C@@H](C)[C@@H](c1cnn(C)c1)N1CC2(CCN(c3ncnc4sc(CC(F)(F)F)cc34)C2)C1` (single isomer, unassigned) [Compound 237], the IC50 is 1.2 µM.
Next, `CC(Cc1cc(F)cc(F)c1)N1CC2(CCN(c3ncnc4sc(CC(F)(F)F)cc34)C2)C1` (centres unmarked) [Compound 170]: 4.3 µM; `Cc1nn(C)cc1[C@@H](C(C)C)N1CC2(CCN(c3ncnc4sc(CC(F)(F)F)cc34)C2)C1` [Compound 166]: 2.4 µM.
Next, `CC(Cc1cccc(F)c1)N1CC2(CCN(c3ncnc4sc(CC(F)(F)F)cc34)C2)C1` (centres unmarked) [Compound 183]: 1.3 µM; `CC(C)[C@@H](C1CCNCC1)N1CC2(CCN(c3ncnc4sc(CC(F)(F)F)cc34)C2)C1` [Compound 169]: 3.5 µM; `Cc1cccc(CN2CC3(CCN(c4ncnc5sc(CC(F)(F)F)cc45)C3)C2)c1` [Compound 46]: 4.1 µM.
Then `Cn1cc(CN2CC[C@]3(CCN(c4ncnc5sc(CC(F)(F)F)cc45)C3)C2)cn1` (single isomer, unassigned) [Compound 299], with 3.18 µM; and `CC(C)[C@@H](c1cnn(C)c1)N1CC2(CCN(c3ncnc4sc(CC(F)(F)F)cc34)C2)C1` [Compound 203], with 7.2 µM.
Take `C[C@H](C1CNC1)N1CC2(CCN(c3ncnc4sc(CC(F)(F)F)cc34)C2)C1` [Compound 150]: the concentration for half-maximal inhibition (IC50) stood at 2 µM.
Then `CC(Cc1ccc(C#N)cc1)N1CC2(CCN(c3ncnc4sc(CC(F)(F)F)cc34)C2)C1` (centres unmarked) [Compound 314], with 0.73 µM; and `CO[C@H]1CN[C@H](C(=O)N2CC3(C2)CN(c2ncnc4sc(CC(F)(F)F)cc24)C3)C1` [Compound 111], with 9.3 µM; and `COc1ccccc1CC(C)N1CC2(CCN(c3ncnc4sc(CC(F)(F)F)cc34)C2)C1` (centres unmarked) [Compound 171], with 3.1 µM.
Next, `FC(F)(F)Cc1cc2c(N3CCC4(CN(CC5CCNCC5)C4)C3)ncnc2s1` [Compound 311]: 2.4 µM; `CC(C)CC(C1CCC2(CCCC2)OC1)N1CC2(CCN(c3ncnc4sc(CC(F)(F)F)cc34)C2)C1` (single isomer, unassigned) [Compound 313]: 3.6 µM; `CC(C)[C@@H](C1CCOCC1)N1CC2(CCN(c3ncnc4sc(CC(F)(F)F)cc34)C2)C1` [Compound 162]: 3.1 µM.
Next, `CC(C)[C@H](c1cnn(C)c1)N1CC[C@]2(CCN(c3ncnc4sc(CC(F)(F)F)cc34)C2)C1` (single isomer, unassigned) [Compound 188]: 1.5 µM.
On to `FC(F)(F)Cc1cc2c(N3CCC4(CN(CCC5CCOCC5)C4)C3)ncnc2s1` [Compound 67], for which the IC50 came to 4.9 µM.
Then `Cc1ccc(CC(C)N2CC3(CCN(c4ncnc5sc(CC(F)(F)F)cc45)C3)C2)cc1` (centres unmarked) [Compound 324], with 1.9 µM; and `CC[C@@H](C)[C@H](c1cnn(C)c1)N1CC2(CCN(c3ncnc4sc(CC(F)(F)F)cc34)C2)C1` (single isomer, unassigned) [Compound 235], with 0.71 µM; and `Cc1ccc(CC(C2CNC2)N2CC3(CCN(c4ncnc5sc(CC(F)(F)F)cc45)C3)C2)cc1` (centres unmarked) [Compound 318], with 1.09 µM.
Then `CC(C)CN1CCC2(C1)CN(c1ncnc3sc(CC(F)(F)F)cc13)C2` [Compound 58], with 2.7 µM; and `CO[C@@H]1CN[C@H](C(=O)N2CC3(C2)CN(c2ncnc4sc(CC(F)(F)F)cc24)C3)C1` [Compound 110], with 4 µM.
Next, `Cc1c([C@@H](C(C)C)N2CC3(CCN(c4ncnc5sc(CC(F)(F)F)cc45)C3)C2)cnn1C` [Compound 173]: 3.2 µM.
On to `Cc1c(C(C(C)C)N2CC3(CCN(c4ncnc5sc(CC(F)(F)F)cc45)C3)C2)cnn1C` (centres unmarked) [Compound 172], for which the half-inhibitory concentration (IC50) was 2.9 µM.
On to `COc1cccc(CC(C)N2CC3(CCN(c4ncnc5sc(CC(F)(F)F)cc45)C3)C2)c1` (centres unmarked) [Compound 320], for which the IC50 was found to be 1.37 µM.
In the case of `COCCn1cc(C(C(C)C)N2CC3(CCN(c4ncnc5sc(CC(F)(F)F)cc45)C3)C2)cn1` (centres unmarked) [Compound 71], the half-inhibitory concentration (IC50) came to 1.1 µM.
Next, `Fc1ccc(CCN2CC[C@@]3(CCN(c4ncnc5sc(CC(F)(F)F)cc45)C3)C2)cc1` (single isomer, unassigned) [Compound 298]: 4.23 µM; `Cc1ccccc1CN1CC2(CCN(c3ncnc4sc(CC(F)(F)F)cc34)C2)C1` [Compound 45]: 3.4 µM.
